Measurements taken from ChEMBL document CHEMBL4321809, “Structure-Reactivity Relationships on Substrates and Inhibitors of the Lysine Deacylase Sirtuin 2 from Schistosoma mansoni (SmSirt2)” (J Med Chem, 2019).
Calls of active or inactive are those of the source. The calls are words filed in the database; no cut-off is given here.

Legend:
[1] = target: T1, NAD-dependent protein deacetylase sirtuin-2 (Homo sapiens, UniProt Q8IXJ6); assay: Inhibition of N-terminal His6 tagged human sirtuin 2 (25 to 389 residues) at 25 uM using Cbz-Lys(acetyl)-AMC as substrate after 4 hrs in presence of NAD+ by homogeneous fluorescence based analysis relative to control
T1 sequence (Q8IXJ6 whole entry): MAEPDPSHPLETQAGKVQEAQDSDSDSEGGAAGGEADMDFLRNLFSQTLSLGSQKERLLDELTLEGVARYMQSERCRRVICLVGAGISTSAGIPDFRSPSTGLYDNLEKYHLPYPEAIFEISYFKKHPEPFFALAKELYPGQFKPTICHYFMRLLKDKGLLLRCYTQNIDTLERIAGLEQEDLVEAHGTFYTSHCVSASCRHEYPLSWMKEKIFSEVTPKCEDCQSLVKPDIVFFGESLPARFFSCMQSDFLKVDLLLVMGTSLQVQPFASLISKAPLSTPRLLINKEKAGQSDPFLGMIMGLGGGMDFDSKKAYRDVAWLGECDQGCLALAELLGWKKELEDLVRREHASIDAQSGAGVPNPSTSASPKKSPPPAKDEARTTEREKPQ

[2] = target: T2, NAD-dependent protein deacetylase (Schistosoma mansoni) (UniProt T1VXA1); assay: Inhibition of recombinant Schistosoma mansoni sirtuin 2 (21 to 322 residues) expressed in Escherichia coli BL21(DE3) cells at 25 uM using ZMAL as susbtrate after 1 hr in presence of NAD+ by homogeneous fluorescence based analysis relative to control
T2 sequence (whole entry): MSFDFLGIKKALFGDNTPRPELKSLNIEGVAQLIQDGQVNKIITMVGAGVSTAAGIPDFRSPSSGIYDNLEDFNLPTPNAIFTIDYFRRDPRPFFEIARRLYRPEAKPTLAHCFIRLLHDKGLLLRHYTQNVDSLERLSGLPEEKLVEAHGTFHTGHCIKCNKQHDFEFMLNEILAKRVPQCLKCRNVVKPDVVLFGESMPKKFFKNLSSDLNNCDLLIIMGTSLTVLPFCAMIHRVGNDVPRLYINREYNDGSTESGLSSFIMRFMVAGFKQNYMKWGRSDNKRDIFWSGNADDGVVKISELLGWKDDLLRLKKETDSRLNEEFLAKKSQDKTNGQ

[3] = target: T3, NAD-dependent protein deacetylase (Schistosoma mansoni, UniProt T1VXA1); assay: Inhibition of recombinant Schistosoma mansoni sirtuin 2 (21 to 322 residues) expressed in Escherichia coli BL21(DE3) cells using ZMAL as substrate after 1 hr in presence of NAD+ by homogeneous fluorescence based analysis
T3 sequence (T1VXA1 whole entry): T2 sequence (whole entry)

[4] = target: T1, NAD-dependent protein deacetylase sirtuin-2; assay: Inhibition of N-terminal His6 tagged human sirtuin 2 (25 to 389 residues) using Cbz-Lys(acetyl)-AMC as substrate after 4 hrs in presence of NAD+ by homogeneous fluorescence based analysis
[5] = target: T4, NAD-dependent protein deacetylase sirtuin-1 (Homo sapiens, UniProt Q96EB6); assay: Inhibition of human sirtuin 1 at 25 uM relative to control
T4 sequence (Q96EB6 whole entry): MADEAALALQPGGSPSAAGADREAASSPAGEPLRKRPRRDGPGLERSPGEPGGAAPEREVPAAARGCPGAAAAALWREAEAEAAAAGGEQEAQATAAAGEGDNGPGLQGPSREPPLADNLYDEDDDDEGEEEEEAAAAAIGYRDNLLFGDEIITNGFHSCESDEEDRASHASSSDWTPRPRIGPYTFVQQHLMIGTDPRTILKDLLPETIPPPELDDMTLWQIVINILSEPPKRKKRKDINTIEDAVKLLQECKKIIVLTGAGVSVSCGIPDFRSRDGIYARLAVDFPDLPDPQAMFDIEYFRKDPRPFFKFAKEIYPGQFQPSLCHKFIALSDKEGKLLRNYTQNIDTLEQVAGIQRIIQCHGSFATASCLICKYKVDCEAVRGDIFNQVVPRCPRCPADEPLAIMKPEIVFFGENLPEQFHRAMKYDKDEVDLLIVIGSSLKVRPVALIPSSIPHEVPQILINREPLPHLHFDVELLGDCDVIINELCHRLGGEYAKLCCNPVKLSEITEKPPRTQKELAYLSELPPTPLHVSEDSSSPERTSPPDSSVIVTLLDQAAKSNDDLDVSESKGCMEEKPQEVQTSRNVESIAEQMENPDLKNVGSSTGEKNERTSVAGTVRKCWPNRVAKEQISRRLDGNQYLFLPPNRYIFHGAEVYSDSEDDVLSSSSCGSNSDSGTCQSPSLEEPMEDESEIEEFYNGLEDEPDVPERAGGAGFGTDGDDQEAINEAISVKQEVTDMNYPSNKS

[6] = target: T5, NAD-dependent protein deacetylase sirtuin-3, mitochondrial (Homo sapiens, UniProt Q9NTG7); assay: Inhibition of human sirtuin 3 at 25 uM relative to control
T5 sequence (Q9NTG7 whole entry): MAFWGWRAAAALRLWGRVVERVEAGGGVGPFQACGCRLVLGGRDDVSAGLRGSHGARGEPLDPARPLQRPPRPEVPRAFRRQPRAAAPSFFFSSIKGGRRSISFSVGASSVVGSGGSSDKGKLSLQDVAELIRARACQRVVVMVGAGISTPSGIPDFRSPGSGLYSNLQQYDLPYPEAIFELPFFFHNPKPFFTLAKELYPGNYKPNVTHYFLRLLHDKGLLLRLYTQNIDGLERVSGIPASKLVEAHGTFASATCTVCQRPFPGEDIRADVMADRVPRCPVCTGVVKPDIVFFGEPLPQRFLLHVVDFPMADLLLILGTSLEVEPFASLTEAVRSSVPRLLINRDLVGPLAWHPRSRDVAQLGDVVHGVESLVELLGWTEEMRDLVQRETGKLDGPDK

[7] = system: Schistosoma mansoni; assay: Antiparasitic activity against adult Schistosoma mansoni Puerto Rico assessed as reduction in egg laying at 10 to 20 uM after 24 hrs by microscopic analysis; type: functional, organism-based
[8] = system: Schistosoma mansoni; assay: Antiparasitic activity against adult Schistosoma mansoni Puerto Rico assessed as reduction in worm pairing at 10 to 20 uM after 24 hrs by microscopic analysis; type: functional, organism-based
[9] = system: HL-60; assay: Cytotoxicity against human HL60 cells at 10 uM after 72 hrs by Cell titer MTS dye based analysis; settings: hl-60, 72 h
[10] = system: Schistosoma mansoni; assay: Antiparasitic activity against Schistosoma mansoni Puerto Rico assessed as reduction in parasite viability at 10 to 20 uM after 72 hrs by microscopic analysis; type: functional, organism-based

Row | SMILES | inhibition at 25 µM [1] | inhibition [2] | IC50 [3] | other results
1 | Nc1nc(N)c2cnc(N3CCN(c4ccccc4)CC3)nc2n1 | < 15% | < 15% | – | –
2 | CCC(c1ccc(Oc2ccc(OC)cc2)cc1)N(C)c1ncc2c(N)nc(N)nc2n1 (configuration not stated) | – | – | 12.8 µM | IC50 [4]: 36.7 µM
3 | COc1ccc(Nc2ccc(C(C)N(C)c3ncc4c(N)nc(N)nc4n3)cc2)cc1 (configuration not stated) | 40.8% | – | 65.1 µM | –
4 | COc1ccc(Oc2ccc(CN(C)c3ncc(C#N)c(N)n3)cc2)cc1 | < 15% | < 15% | – | –
5 | CC(c1ccc(Oc2ccccc2)cc1)N(C)c1ncc2c(N)nc(N)nc2n1 (configuration not stated) | < 15% | 27.6% | – | –
6 | CC(c1ccc(Oc2ccc(OC(F)(F)F)cc2)cc1)N(C)c1ncc2c(N)nc(N)nc2n1 (configuration not stated) | 37.5% | 20.3% | – | –
7 | CNC(C)c1ccc(Oc2ccccc2)cc1 (configuration not stated) | < 15% | < 15% | – | –
8 | CC1CCCCN1c1ncc2c(N)nc(N)nc2n1 (configuration not stated) | < 15% | < 15% | – | –
9 | COc1ccc(Oc2ccc(C(C)Nc3ncc4c(N)nc(N)nc4n3)cc2)cc1 (configuration not stated) | 21% | 37.5% | – | –
10 | COC1=C(OC)C(=O)C(CCCCCCCCCCO)=C(C)C1=O [IDEBENONE] | – | – | 1.9 µM | IC50 [4]: 15.4 µM
11 | COc1ccc(Oc2ccc(C(C)N(C)c3ncc4c(N)nc(N)nc4n3)cc2)c2ccccc12 (configuration not stated) | 30.6% | 18.4% | – | –
12 | CCCCCCCC(=O)Nc1ccc(-c2noc(CC3CCCN(Cc4cccc(F)c4C)C3)n2)cc1 (configuration not stated) | < 15% | 30.5% | – | –
13 | Nc1nc(N)c2cnc(N3CCc4ccccc4C3)nc2n1 | < 15% | < 15% | – | –
14 | CC(c1ccc(Oc2ccc(OCc3ccccc3)cc2)cc1)N(C)c1ncc2c(N)nc(N)nc2n1 (configuration not stated) | 70.4% | 40.3% | – | –
15 | CCCCCCCCCC(=O)Nc1ccc(-c2noc(CC3CCCN(Cc4cccc(F)c4C)C3)n2)cc1 (configuration not stated) | < 15% | < 15% | – | –
16 | COc1cccc(Oc2ccc(C(C)N(C)c3ncc4c(N)nc(N)nc4n3)cc2)c1 (configuration not stated) | 33.8% | – | 23.1 µM | –
17 | Nc1nc(N)c2cnc(NC3CCN(Cc4ccccc4)CC3)nc2n1 | 23.2% | < 15% | – | –

Row | SMILES | inhibition at 25 µM [1] | inhibition [2] | IC50 [3] | other results
18 | COc1ccc(Oc2ccc(CN(C)c3ncc4c(N)nc(N)nc4n3)cc2)cc1 | < 15% | < 15% | – | inhibition at 25 µM [5]: < 15%; inhibition at 25 µM [6]: < 15%; inhibition [7]: Active; inhibition [8]: Active; Activity [9]: Toxic; inhibition [10]: Active
19 | COc1ccc(Oc2ccc(C(C)N(C)c3ncc4c(N)nc(N)nc4n3)cc2)cc1OC (configuration not stated) | 35.3% | – | 44.7 µM | –
20 | CC(c1ccc(-c2ccccc2)cc1)N(C)c1ncc2c(N)nc(N)nc2n1 (configuration not stated) | < 15% | 24.8% | – | –
21 | COc1ccc(COc2ccc(C(C)N(C)c3ncc4c(N)nc(N)nc4n3)cc2)cc1 (configuration not stated) | 61.7% | 46.2% | – | inhibition at 25 µM [5]: < 15%; inhibition at 25 µM [6]: < 15%; inhibition [7]: Active; inhibition [8]: Active; Activity [9]: Toxic; inhibition [10]: Active
22 | CC(Nc1ncc2c(N)nc(N)nc2n1)c1ccccc1 (configuration not stated) | < 15% | < 15% | – | –
23 | COc1ccc(Sc2ccc(C(C)N(C)c3ncc4c(N)nc(N)nc4n3)cc2)cc1 (configuration not stated) | – | – | 14.9 µM | IC50 [4]: 13.3 µM
24 | CN(Cc1ccccc1)c1ncc2c(N)nc(N)nc2n1 | < 15% | < 15% | – | –
25 | Nc1ncc2c(N)nc(N)nc2n1 | < 15% | < 15% | – | –
26 | COc1ccc(Oc2ccc(C(c3ccccc3)N(C)c3ncc4c(N)nc(N)nc4n3)cc2)cc1 (configuration not stated) | 22.1% | – | 2.34 µM | Imax [2]: 60%; inhibition [7]: Active; inhibition [8]: Active; Activity [9]: Non-Toxic; inhibition [10]: Active
27 | CC(c1ccccc1)N(C)c1ncc2c(N)nc(N)nc2n1 (configuration not stated) | < 15% | < 15% | – | –
28 | COc1ccc(C(C)N(C)c2ncc3c(N)nc(N)nc3n2)cc1 (configuration not stated) | < 15% | < 15% | – | –
29 | COc1cc(Oc2ccc(C(C)N(C)c3ncc4c(N)nc(N)nc4n3)cc2)cc(OC)c1OC (configuration not stated) | 29.2% | – | 30.8 µM | –
30 | CC(=O)Nc1ccc(-c2noc(CC3CCCN(Cc4cccc(F)c4C)C3)n2)cc1 (configuration not stated) | – | – | 14 to 14.5 µM | IC50 [4]: 3.6 to 8 µM
31 | COc1cc(OC)cc(Oc2ccc(C(C)N(C)c3ncc4c(N)nc(N)nc4n3)cc2)c1 (configuration not stated) | 7.4% | – | 12.5 µM | inhibition [7]: Active; inhibition [8]: Active; Activity [9]: Non-Toxic; inhibition [10]: Active
32 | COc1ccc(CNc2ncc3c(N)nc(N)nc3n2)cc1 | < 15% | < 15% | – | –
33 | COc1ccc(Oc2ccc(C(C(C)C)N(C)c3ncc4c(N)nc(N)nc4n3)cc2)cc1 (configuration not stated) | 57.4% | – | 27.7 µM | –
